Patent US11607404B2, “Combinations of RAD51 and PARP inhibitors” (Cyteir Therapeutics, Inc., priority 2019, dated 2023)

Tests used:
TM00091 model = test: Tumor growth inhibition, subcutaneous engrafted tumor model; assay type: in vivo, mice; conditions: HRD Positive, RAD51 High, BRCA1 Mut, PALB2 WT, 67A 40 mg/kg QD, olaparib 50 mg/kg QD, combo both
Protocol: (§1) Immunodeficient mice were subcutaneously engrafted in the rear flank with the tumor cells. The tumors were allowed to grow to a size of about 100 to about 200 mm^3 prior to being randomized and grouped into treatment arms. For models […] through […] the four treatment arms were vehicle, Compound 67A at 80 mg/kg QD, olaparib at 100 mg/kg QD, and Compound 67A+Olaparib at 80 mg/kg QD and 100 mg/kg QD, respectively. For models J000101173 through TM00091 the treatment arms were vehicle, Compound 67A at 40 mg/kg QD, olaparib at 50 mg/kg QD, and Compound 67A+Olaparib at 40 mg/kg QD and 50 mg/kg QD, respectively. The tumors were measured either once weekly or twice weekly.
(§2) Percent Tumor Growth Inhibition (% TGI) was calculated by taking the mean volume of each of the treatment arms, and comparing the treatment arms to the vehicle arms using the following equation

TM00090 model = test: as above; assay type: in vivo, mice; conditions: HRD Positive, RAD51 Low, BRCA1 Meth, BRCA2 Mut, PALB2 WT, 67A 40 mg/kg QD, olaparib 50 mg/kg QD, combo both
Protocol: as §1, §2

J000100675 model = test: as above; assay type: in vivo, mice; conditions: HRD Negative, RAD51 Low, BRCA WT, PALB2 WT, 67A 40 mg/kg QD, olaparib 50 mg/kg QD, combo both
Protocol: as §1, §2

HBCx12B model = test: as above; assay type: in vivo, mice; conditions: HRD Positive, RAD51 High, BRCA1 Meth, PALB2 WT, 67A 80 mg/kg QD, olaparib 100 mg/kg QD, combo both
Protocol: as §1, §2

HBCx16 model = test: as above; assay type: in vivo, mice; conditions: HRD Positive, RAD51 High, BRCA1 Meth, PALB2 WT, 67A 80 mg/kg QD, olaparib 100 mg/kg QD, combo both
Protocol: as §1, §2

HBCx1 model = test: as above; assay type: in vivo, mice; conditions: HRD Positive, RAD51 High, BRCA WT, PALB2 WT, 67A 80 mg/kg QD, olaparib 100 mg/kg QD, combo both
Protocol: as §1, §2

J000101173 model = test: as above; assay type: in vivo, mice; conditions: HRD Positive, RAD51 Low, BRCA WT, PALB2 WT, 67A 40 mg/kg QD, olaparib 50 mg/kg QD, combo both
Protocol: as §1, §2

HBCx23 model = test: as above; assay type: in vivo, mice; conditions: HRD Positive, RAD51 High, BRCA1 Meth, PALB2 WT, 67A 80 mg/kg QD, olaparib 100 mg/kg QD, combo both
Protocol: as §1, §2

TM00096 model = test: as above; assay type: in vivo, mice; conditions: HRD Positive, RAD51 Low, BRCA WT, PALB2 WT, 67A 40 mg/kg QD, olaparib 50 mg/kg QD, combo both
Protocol: as §1, §2

HBCx27 model = test: as above; assay type: in vivo, mice; conditions: HRD Negative, RAD51 High, BRCA WT, PALB2 WT, 67A 80 mg/kg QD, olaparib 100 mg/kg QD, combo both
Protocol: as §1, §2

TM01079 model = test: as above; assay type: in vivo, mice; conditions: HRD Positive, RAD51 Low, BRCA1 Meth, PALB2 WT, 67A 40 mg/kg QD, olaparib 50 mg/kg QD, combo both
Protocol: as §1, §2

HBCx11 model = test: as above; assay type: in vivo, mice; conditions: HRD Positive, RAD51 High, BRCA1 Mut, PALB2 WT, 67A 80 mg/kg QD, olaparib 100 mg/kg QD, combo both
Protocol: as §1, §2

T298 model = test: as above; assay type: in vivo, mice; conditions: HRD Positive, RAD51 Low, BRCA WT, PALB2 Mut, 67A 80 mg/kg QD, olaparib 100 mg/kg QD, combo both
Protocol: as §1, §2

TM000113 model = test: as above; assay type: in vivo, mice; conditions: HRD Negative, RAD51 Low, BRCA WT, PALB2 WT, 67A 40 mg/kg QD, olaparib 50 mg/kg QD, combo both
Protocol: as §1, §2

HBCx17 model = test: as above; assay type: in vivo, mice; conditions: HRD Positive, RAD51 High, BRCA2 Mut, PALB2 WT, 67A 80 mg/kg QD, olaparib 100 mg/kg QD, combo both
Protocol: as §1, §2

[1] = system: ARPE19/HPV16, KYSE-70 and Daudi cell lines; test: Combination matrix study Compound 67A + PARP inhibitors, cell lines of varying AID expression (Bliss, Loewe); assay type: cell-based; conditions: non-tumor derived cell line ARPE19/HPV16; in combination with Compound 67A
Protocol: The combination matrix was tested in 3 cell lines of varying AID expression: ARPE19/HPV16 (HPV immortalized normal epithelial cell line), KYSE-70 (head and neck cancer cell line) and Daudi (Burkitt's Lymphoma cell line). […] Both the Loewe Additivity model and the Bliss Independence model were used to determine drug interaction (synergistic, independent, or antagonistic).
Bliss Independence model was used and calculated in Excel. The model assumes that the drugs act with probabilistic independence. Bliss: yexp=yA+yB−yAyB
This expected value was generated by examining single-agent effects and then tested against the observed value using a two-tailed Welch's T-Test. For visualization purposes, the values generated from this test were transformed to a “Synergy Score” by doing the computation:
Loewe Additivity model was used and calculated by the “Synergyfinder” R package.
The graphs generated describe the difference between the expected value generated by the additivity model and the observed value generated by the experiment. If the effect determined by the additivity model<the effect observed the space is colored red, if the effect determined by the additivity mode>the effect observed then the space is colored green. The saturation of the color is proportional to the magnitude of the difference between these two values.

Structure (SMILES): O=C(c1cc(Cc2n[nH]c(=O)c3ccccc23)ccc1F)N1CCN(C(=O)C2CC2)CC1 [Olaparib, olaparib, reference compound]
- % TGI (TM00091 model): 21.26%
- % TGI (TM00090 model): 86.05%
- % TGI (J000100675 model): −17%
- % TGI (HBCx12B model): 42.56%
- % TGI (HBCx16 model): −25.61%
- % TGI (HBCx1 model): 51.07%
- % TGI (J000101173 model): 4.71%
- % TGI (HBCx23 model): 84.48%
- % TGI (TM00096 model): −1.94%
- % TGI (HBCx27 model): 7.819%
- % TGI (TM01079 model): 68.7%
- % TGI (HBCx11 model): 60.95%
- % TGI (T298 model): 107%
- % TGI (TM000113 model): 2.37%
- % TGI (HBCx17 model): 122%
- Drug interaction with Compound 67A (synergy) [1]: synergy observed
